Measurements: patent publication US11529359B2, “Use of GABAA receptor modulators for treatment of itch” (UNIVERSITÄT ZÜRICH, priority 2016, dated 2022)

Columns and labels:
α2 GABAA receptors = biological target: T1, α2 GABAA receptors (Mus musculus, UniProt P22723+P26048); experiment: α-Me-5HT-induced itch (cheek injection) in RHRR triple point-mutated mice (α2 only); assay type: in vivo, mice (129X1/SvJ genetic background)
T1 construct: endogenous in cells; host or cells: living RHRR triple point-mutated mice (129X1/SvJ)
Protocol: (§1) Because mice of this particular genetic background (129SvJ) have not yet been systematically analyzed in itch experiments, the inventors first assessed the sensitivity of these mice to a battery of pruritogens injected into the right cheek.
(§2) Acute itch was assessed in mice that received intradermal microinjections of pruritogens or 0.9% saline into the right cheek, which had been shaved at least one day before the experiment. In two sets of experiments that addressed the contribution of GABAARs in primary and secondary pruritoceptors, pruritogens were injected in the right thigh (FIG. 17). Before injection, mice were acclimatized to a 15 cm diameter cylindrical enclosure for more than 30 min with cage bedding on the ground. Background white noise generated by a radio in the room at ambient volume was applied to prevent auditory distraction. […] Videos were analyzed off-line. Scratching of the hind paw directed to the ipsilateral cheek was counted in bouts, with one scratching bout defined as an instance when the mouse lifted its paw to scratch until it returned the paw to the cage floor. In case of experiments in which the pruritogen was injected in the skin of the thigh, the time spent biting the injected skin area was counted in s/min as a measure of itch.

α3 GABAA receptors = biological target: T2, α3 GABAA receptors (Mus musculus, UniProt P22723+P26049); experiment: α-Me-5HT-induced itch (cheek injection) in RRHR triple point-mutated mice (α3 only); assay type: in vivo, mice (129X1/SvJ genetic background)
T2 construct: endogenous in cells; host or cells: living RRHR triple point-mutated mice (129X1/SvJ)
Protocol: as §1, §2

α5 GABAA receptors = biological target: T3, α5 GABAA receptors (Mus musculus, UniProt P22723+Q8BHJ7); experiment: α-Me-5HT-induced itch (cheek injection) in RRRH triple point-mutated mice (α5 only); assay type: in vivo, mice (129X1/SvJ genetic background); conditions: DZP 10 mg/kg per oral 1 h before 20 μg α-Me-5HT, 20 min
T3 construct: endogenous in cells; host or cells: living triple point-mutated mice with only α5 diazepam-sensitive
Protocol: as §1, §2

[1] = tested on: α2, α3 or α5 GABAA receptors; experiment: oxazolone contact dermatitis model of chronic itch in GABAAR triple point-mutated mice; assay type: in vivo, mice (129X1/SvJ genetic background); conditions: 10 mg/kg i.p. on day 18; recorded 4 hours after injection
[2] = tested on: contact dermatitis-induced chronic itch; experiment: oxazolone contact dermatitis model of chronic itch in wild-type mice; assay type: in vivo, wild-type C57BL6/J mice; conditions: 10 mg/kg i.p. on day 18; 15 to 210 min after injection
Protocol: Thus, TPA023B is, in accordance with the other findings of the inventors, suitable as an antipruritic substance.
This was independent of the treatment they received from day 7 to day 27.
The inventors sought to confirm the antipruritic efficacy of α2 and α3 GABAA receptor agonists against contact dermatitis-induced chronic itch. To this end, N-desmethyl clobazam, a benzodiazepine with improved activity at α2 versus α1 was assessed for its antipruritic effects (Jensen et al. PLoS One. 2014 Feb. 12; 9(2):e88456.).
Chronic itch was investigated in the contact dermatitis model (Kido-Nakahara, M., et al. J Clin Invest, 2014, 124, 2683-2695). Mice were treated once with 10% oxazolone in acetone/olive oil (4:1 v/v) on the shaved nape of the neck (100 μl) on day 0. After a resting period of 7 days, mice were treated with 1% oxazolone in acetone/olive oil (4:1 v/v) on the nape of the neck (100 μl) every other day for 10 days. On the day of the experiment, mice were injected with drug or vehicle i.p. under short and light isoflurane anesthesia. […]

α-Me-5HT-induced itch = experiment: α-methyl 5-HT-induced itch (cheek injection) in wild-type mice; assay type: in vivo, wild-type mice (129X1/SvJ)
α3 GABAA receptor = biological target: T4, α3 GABAA receptor (Mus musculus, UniProt P22723+P26049, H154R); experiment: α-Me-5HT-induced itch in HHRH mice (α3-GABAAR DZP-insensitive); assay type: in vivo; conditions: 10 mg/kg per oral 1 h before 20 μg α-Me-5HT; 20 min
T4 construct: endogenous in cells; host or cells: living HHRH single point-mutated mice (knock-in)
Protocol: Wild-type and GABAAR single point mutated mice in which only α3 is rendered DZP-insensitive (HHRH mice) received per oral injection of 10 mg/kg TP003 or vehicle. One hour after injection, the mice received a 20 μg α-Me-5HT cheek injection to elicit itching. Over the course of twenty minutes scratching bouts directed at the ipsilateral cheek were recorded and TP003 injected mice compared with vehicle injected control mice (FIGS. 8A & 8B).
as §2, with “ground.” for “ground. Background white noise generated by a radio in the room at ambient volume was applied to prevent auditory distraction.”

[3] = tested on: brain membranes prepared from α1,2,3,5 H→R point mutated mice; assay type: binding, mice (RRRR); conditions: 4 nM [3H]Ro 15-4513; increasing concentrations; n=4
Protocol: The supernatant was centrifuged for 20 min at 30,000 g and the resulting crude membrane pellet was washed once with buffer. […] Non-specific [^3H]Ro 15-4513 binding was assessed by addition of 10 μM flumazenil to the reaction. Incubation was stopped by rapid vacuum filtration using a semiautomatic cell harvester (Skatron Instruments) and washed filters were subjected to liquid scintillation counting.

chloroquine-induced itch = chloroquine-induced itch (cheek injection) in wild-type mice; assay type: in vivo, wild-type C57BL6/J mice; conditions: 30 mg/kg intraperitoneal; 100 μg chloroquine; 30 min
Protocol: as §2, with “distraction. A 30 gauge needle was inserted bevel-up and pushed 5 mm horizontally into the skin beyond the point of insertion, before injection of the pruritogen (in a total volume of 10 μl). No anesthesia was used. Correct injection was confirmed by the appearance of a slightly domed bulla upon injection.” for “distraction.”

T1 sequence (P26048 29-451): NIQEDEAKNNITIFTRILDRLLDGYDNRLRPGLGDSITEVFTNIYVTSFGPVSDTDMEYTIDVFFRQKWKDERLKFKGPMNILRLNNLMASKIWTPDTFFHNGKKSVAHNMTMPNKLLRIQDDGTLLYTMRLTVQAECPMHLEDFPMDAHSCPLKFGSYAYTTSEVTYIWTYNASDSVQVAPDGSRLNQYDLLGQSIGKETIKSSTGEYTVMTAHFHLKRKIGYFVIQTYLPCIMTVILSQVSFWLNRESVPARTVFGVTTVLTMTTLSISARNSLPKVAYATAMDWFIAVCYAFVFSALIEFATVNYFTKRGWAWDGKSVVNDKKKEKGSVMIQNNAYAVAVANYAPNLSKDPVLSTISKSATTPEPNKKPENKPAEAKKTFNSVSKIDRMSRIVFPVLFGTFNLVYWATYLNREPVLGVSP
T1 sequence (P63080 26-473 partner): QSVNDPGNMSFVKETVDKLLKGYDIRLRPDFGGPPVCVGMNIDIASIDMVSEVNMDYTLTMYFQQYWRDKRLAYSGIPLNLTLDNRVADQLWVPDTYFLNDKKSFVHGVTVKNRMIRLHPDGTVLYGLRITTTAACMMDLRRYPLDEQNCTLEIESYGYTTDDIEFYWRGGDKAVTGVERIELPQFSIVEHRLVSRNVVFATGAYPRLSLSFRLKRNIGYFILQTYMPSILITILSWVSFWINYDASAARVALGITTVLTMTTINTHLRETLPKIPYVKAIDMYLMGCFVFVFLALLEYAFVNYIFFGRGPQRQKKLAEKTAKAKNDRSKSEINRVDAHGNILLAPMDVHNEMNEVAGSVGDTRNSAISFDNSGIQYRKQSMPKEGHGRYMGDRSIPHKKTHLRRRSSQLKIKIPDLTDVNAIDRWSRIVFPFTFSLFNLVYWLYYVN
T1 sequence (P22723 39-474): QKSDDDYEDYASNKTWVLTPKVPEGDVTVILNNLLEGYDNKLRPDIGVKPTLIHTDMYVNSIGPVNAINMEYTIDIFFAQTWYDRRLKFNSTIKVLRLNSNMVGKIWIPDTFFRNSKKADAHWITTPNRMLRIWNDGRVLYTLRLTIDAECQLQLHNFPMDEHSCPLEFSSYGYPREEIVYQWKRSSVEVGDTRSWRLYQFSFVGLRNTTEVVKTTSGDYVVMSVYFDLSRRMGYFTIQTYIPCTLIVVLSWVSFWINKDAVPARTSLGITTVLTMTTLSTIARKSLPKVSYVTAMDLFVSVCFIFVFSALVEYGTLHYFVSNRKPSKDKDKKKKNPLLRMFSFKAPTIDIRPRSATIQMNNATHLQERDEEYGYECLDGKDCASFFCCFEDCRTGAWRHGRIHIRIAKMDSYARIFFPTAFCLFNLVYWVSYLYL
T2 sequence (P26049 29-492): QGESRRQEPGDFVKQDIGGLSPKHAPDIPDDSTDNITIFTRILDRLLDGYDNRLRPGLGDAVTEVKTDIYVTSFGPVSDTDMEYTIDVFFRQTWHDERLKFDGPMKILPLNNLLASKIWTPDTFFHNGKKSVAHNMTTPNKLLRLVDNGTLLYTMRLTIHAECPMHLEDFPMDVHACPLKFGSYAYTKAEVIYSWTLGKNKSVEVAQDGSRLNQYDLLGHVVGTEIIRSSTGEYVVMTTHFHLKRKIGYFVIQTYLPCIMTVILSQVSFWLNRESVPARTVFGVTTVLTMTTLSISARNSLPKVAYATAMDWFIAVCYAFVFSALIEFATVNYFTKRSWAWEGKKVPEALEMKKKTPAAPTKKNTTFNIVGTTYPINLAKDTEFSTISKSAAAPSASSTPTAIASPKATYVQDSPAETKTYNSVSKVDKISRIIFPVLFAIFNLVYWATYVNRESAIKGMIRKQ
T2 sequence (P63080 26-473 partner): as the sequence (P63080 26-473 partner) above
T2 sequence (P22723 39-474): as the sequence (P22723 39-474) above
T3 sequence (Q8BHJ7 32-463 limits assumed): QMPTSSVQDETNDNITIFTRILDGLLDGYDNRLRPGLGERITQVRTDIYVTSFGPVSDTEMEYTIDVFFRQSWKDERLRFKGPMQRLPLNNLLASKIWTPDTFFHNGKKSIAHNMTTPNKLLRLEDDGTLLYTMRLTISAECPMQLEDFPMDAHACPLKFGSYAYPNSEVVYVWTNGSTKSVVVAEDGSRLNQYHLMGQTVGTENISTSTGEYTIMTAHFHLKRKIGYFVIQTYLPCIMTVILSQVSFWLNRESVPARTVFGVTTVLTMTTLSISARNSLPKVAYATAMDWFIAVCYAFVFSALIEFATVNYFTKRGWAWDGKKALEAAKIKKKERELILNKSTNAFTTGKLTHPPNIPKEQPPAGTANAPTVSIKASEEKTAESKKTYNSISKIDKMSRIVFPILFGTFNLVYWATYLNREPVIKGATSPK
T3 sequence (P63080 26-473 partner): as the sequence (P63080 26-473 partner) above
T3 sequence (P22723 39-474): as the sequence (P22723 39-474) above
T4 sequence (P26049 29-492 H154R): as the sequence (P26049 29-492) above, with H126R counted along it
T4 sequence (P63080 26-473 partner): as the sequence (P63080 26-473 partner) above
T4 sequence (P22723 39-474): as the sequence (P22723 39-474) above

CN1C(=O)CN=C(c2ccccc2)c2cc(Cl)ccc21 [DZP, Diazepam]
scratching bouts directed at the ipsilateral cheek vs vehicle (α2 GABAA receptors; RHRR mice (α2 only), DZP 10 mg/kg per oral 1 h before 20 μg α-Me-5HT, 20 min): significant reduction of scratching bouts | dose-response of scratching bouts (α2 GABAA receptors; RHRR mice, 0.1, 0.3, 1, 3, 10 and 30 mg/kg per oral 1 h before 20 μg α-Me-5HT, 30 min): dose-dependent reduction of scratching bouts | dose-dependence of antipruritic effects (α3 GABAA receptors; RRHR mice (FIG. 2C), oral DZP 1 h before 20 μg α-Me-5HT): dose-dependent antipruritic effects | scratching bouts directed at the ipsilateral cheek vs vehicle (α3 GABAA receptors; RRHR mice (α3 only), DZP 10 mg/kg per oral 1 h before 20 μg α-Me-5HT, 20 min): significant reduction of scratching bouts | scratching bouts directed at the ipsilateral cheek vs vehicle (α5 GABAA receptors): no significant reduction in scratching bouts | number of scratching bouts directed at the nape of the neck vs vehicle [1]: significant reduction in the number of scratching bouts

O=C1CC(=O)N(c2ccccc2)c2cc(Cl)ccc2N1 [NDMC, N-desmethyl clobazam]
scratching bouts directed at the nape of the neck vs vehicle [2]: significant reduction in scratching bouts

CC(C)(O)c1ccn2c(-c3ccc(F)c(-c4ccc(F)cc4C#N)c3)cnc2c1F [TP003, 4,2′-difluoro-5′-[8-fluoro-7-(1-hydroxy-1-methylethyl)imidazo[1,2-a]pyridin-3-yl]biphenyl-2-carbonitrile]
scratching bouts directed at the ipsilateral cheek vs vehicle (α-Me-5HT-induced itch; wild-type 129X1/SvJ mice, 10 mg/kg per oral 1 h before 20 μg α-Me-5HT, 20 min): significant reduction of scratching bouts | antipruritic effect in HHRH mice (α3 GABAA receptor): absent

CC(C)(C)OC(=O)c1ncn2c1[C@@H]1CCCN1C(=O)c1c(Br)cccc1-2 [bretazenil]
displacement of [3H]Ro 15-4513 binding [3]: dose-dependently inhibited

CC(=O)[C@H]1CC[C@H]2[C@@H]3CC[C@H]4C[C@](C)(O)CC[C@]4(C)[C@H]3CC[C@]12C [ganaxolone]
number of scratching bouts vs vehicle (chloroquine-induced itch): significant reduction in number scratching bouts

CC(N)Cc1c[nH]c2ccc(O)cc12 (stereo not drawn) [α-methyl 5-HT, α-methyl-5-hydroxy-tryptamine]
scratching behavior directed to the injected site (α-Me-5HT-induced itch; different doses injected into the right cheek, wild-type 129X1/SvJ, 30 min): dose-dependent robust scratching behavior
